In general, IC50 refers to the concentration that gives 50% inhibition.

What all share (type): cell-based
In one assay the target is Met (Homo sapiens (Human), UniProt P08581). The assay can be described thus: Met autophosphorylation ELISA in PC-3 cells. The note with it: cellular, HGF stimulated, read-out: c-Met IC50. The method in brief: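 PC-3 cells serum-starved 3 h, treated 1 h with 8-point compound series (0.3% DMSO), then stimulated with 100 ng/mL human HGF for 10 min. Lysate phospho-Met (panTyr) measured by sandwich ELISA; IC50 from 4-parameter logistic fit against DMSO and reference-inhibitor controls.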
On the technique in general: An ELISA detects its analyte on a solid surface through an enzyme-linked reagent.

In another assay the target is KDR (Homo sapiens (Human), UniProt P35968). The assay can be described thus: KDR autophosphorylation ELISA in HUVEC cells. The note with it: cellular, VEGF165 stimulated. Put shortly:
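Serum-starved (24 h) primary HUVEC were pretreated 1 h with compounds (8-point dilution, 0.3% DMSO final), then stimulated 5 min with 100 ng/mL VEGF165. Lysate phospho-KDR quantified by sandwich ELISA against a phospho-KDR standard; IC50 by 4-parameter fit, normalised to stimulated DMSO and unstimulated controls.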

The target in the next assay is AXL (Homo sapiens (Human), UniProt P30530). Put plainly: AXL autophosphorylation ELISA in A-172 cells. To be noted: cellular, Gas6 stimulated. Put shortly:
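Serum-starved (24 h) A-172 glioblastoma cells pretreated 1 h with compounds (8-point curve, 0.3% DMSO), then stimulated 15 min with 1 μg/mL Gas6. Lysate phospho-AXL measured by sandwich ELISA against a phospho-AXL standard; IC50 from 4-parameter logistic fit between DMSO and reference-inhibitor controls.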

The target of a further assay is Mer (Homo sapiens (Human), UniProt Q12866). Put plainly: Mer autophosphorylation ELISA in transient transfected 293A cells. The note with it: cellular, MERTK transfected 293A cells. The method, then:
293A cells (Thermo Fisher #R70507) were seeded at 1.5×10^6 cells/well onto 100 mm dish (Greiner #664169), in DMEM (Thermo Fisher #11995-040) containing 10% FBS (Thermo Fisher #26140-079), 1% MEM NEAA (Thermo Fisher #11140-050), 1% GlutaMax (Thermo Fisher #35050-061), and 1% Penicillin Streptomycin (Thermo Fisher #15140-122). 293A cells were incubated at 37° C., 5% CO2 for 24 h and then transfected with 6 μg MERTK DNA (Genecopoeia #EX-Z8208-M02) using TransIT LT1 transfection reagent (Mirus-Bio #MIR2305). After 24 h incubation, the transfected 293A cells were seeded at 1×10^5 cells/well onto 96-well plates (Corning #3904) in DMEM growth medium overnight. Test compounds were serially diluted to produce an 8-point dose curve in fresh serum-free medium to a final concentration of 0.3% DMSO (vehicle) and added to the cells and incubated for 1 h. Cells were then immediately lysed with 150 μL of cold 1× lysis buffer [20 mM Tris, 137 mM sodium chloride, 2 mM EDTA, 10% glycerol, 1% NP-40 alternative, 1 mM activated sodium orthovanadate, 1 mM PefaBloc SC (Sigma-Aldrich #11429868001), protease/phosphatase inhibitor tablet (Thermo Fisher #A32959)]. Lysates were clarified by centrifugation and 50 μL/well added into the human phospho-Mer DuoSet IC ELISA (R&D Systems #DYC2579-2). Assay was performed according to manufacturer's instructions and sample phospho-Mer concentrations were extrapolated using human phospho-Mer control (R&D Systems #841793) as a standard. Positive control wells (100% activity) contained DMSO-treated cell lysates. Negative control wells (0% activity) contained reference inhibitor-treated cell lysates. IC50 values were calculated by nonlinear regression analysis using a 4-parameter logistic curve fit in ActivityBase XE (IDBS).

AXL, sequence (P30530 26-894): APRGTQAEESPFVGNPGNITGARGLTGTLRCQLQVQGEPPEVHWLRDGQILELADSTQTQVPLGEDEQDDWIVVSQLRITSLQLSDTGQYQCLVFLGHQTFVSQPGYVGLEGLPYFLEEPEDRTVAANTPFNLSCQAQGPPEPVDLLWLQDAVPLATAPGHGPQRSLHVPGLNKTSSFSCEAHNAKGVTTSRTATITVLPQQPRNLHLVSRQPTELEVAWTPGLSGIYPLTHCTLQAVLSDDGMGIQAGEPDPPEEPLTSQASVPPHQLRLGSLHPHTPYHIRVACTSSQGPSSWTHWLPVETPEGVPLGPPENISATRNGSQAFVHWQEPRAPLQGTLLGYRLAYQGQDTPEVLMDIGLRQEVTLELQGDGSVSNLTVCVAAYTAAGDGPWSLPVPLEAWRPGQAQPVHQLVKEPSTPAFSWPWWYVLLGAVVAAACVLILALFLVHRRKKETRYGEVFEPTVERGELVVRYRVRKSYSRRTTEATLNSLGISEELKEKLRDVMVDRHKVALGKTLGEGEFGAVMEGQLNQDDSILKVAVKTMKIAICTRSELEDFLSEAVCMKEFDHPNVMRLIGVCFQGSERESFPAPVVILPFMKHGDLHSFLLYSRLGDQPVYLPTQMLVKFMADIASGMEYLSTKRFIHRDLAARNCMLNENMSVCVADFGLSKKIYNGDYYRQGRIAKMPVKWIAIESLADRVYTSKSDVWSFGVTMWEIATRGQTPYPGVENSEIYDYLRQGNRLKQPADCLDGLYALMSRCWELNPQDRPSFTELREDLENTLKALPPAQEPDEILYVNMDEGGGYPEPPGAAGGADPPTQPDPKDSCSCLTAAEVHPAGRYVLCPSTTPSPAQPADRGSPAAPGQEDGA
Met, sequence (P08581 25-1390): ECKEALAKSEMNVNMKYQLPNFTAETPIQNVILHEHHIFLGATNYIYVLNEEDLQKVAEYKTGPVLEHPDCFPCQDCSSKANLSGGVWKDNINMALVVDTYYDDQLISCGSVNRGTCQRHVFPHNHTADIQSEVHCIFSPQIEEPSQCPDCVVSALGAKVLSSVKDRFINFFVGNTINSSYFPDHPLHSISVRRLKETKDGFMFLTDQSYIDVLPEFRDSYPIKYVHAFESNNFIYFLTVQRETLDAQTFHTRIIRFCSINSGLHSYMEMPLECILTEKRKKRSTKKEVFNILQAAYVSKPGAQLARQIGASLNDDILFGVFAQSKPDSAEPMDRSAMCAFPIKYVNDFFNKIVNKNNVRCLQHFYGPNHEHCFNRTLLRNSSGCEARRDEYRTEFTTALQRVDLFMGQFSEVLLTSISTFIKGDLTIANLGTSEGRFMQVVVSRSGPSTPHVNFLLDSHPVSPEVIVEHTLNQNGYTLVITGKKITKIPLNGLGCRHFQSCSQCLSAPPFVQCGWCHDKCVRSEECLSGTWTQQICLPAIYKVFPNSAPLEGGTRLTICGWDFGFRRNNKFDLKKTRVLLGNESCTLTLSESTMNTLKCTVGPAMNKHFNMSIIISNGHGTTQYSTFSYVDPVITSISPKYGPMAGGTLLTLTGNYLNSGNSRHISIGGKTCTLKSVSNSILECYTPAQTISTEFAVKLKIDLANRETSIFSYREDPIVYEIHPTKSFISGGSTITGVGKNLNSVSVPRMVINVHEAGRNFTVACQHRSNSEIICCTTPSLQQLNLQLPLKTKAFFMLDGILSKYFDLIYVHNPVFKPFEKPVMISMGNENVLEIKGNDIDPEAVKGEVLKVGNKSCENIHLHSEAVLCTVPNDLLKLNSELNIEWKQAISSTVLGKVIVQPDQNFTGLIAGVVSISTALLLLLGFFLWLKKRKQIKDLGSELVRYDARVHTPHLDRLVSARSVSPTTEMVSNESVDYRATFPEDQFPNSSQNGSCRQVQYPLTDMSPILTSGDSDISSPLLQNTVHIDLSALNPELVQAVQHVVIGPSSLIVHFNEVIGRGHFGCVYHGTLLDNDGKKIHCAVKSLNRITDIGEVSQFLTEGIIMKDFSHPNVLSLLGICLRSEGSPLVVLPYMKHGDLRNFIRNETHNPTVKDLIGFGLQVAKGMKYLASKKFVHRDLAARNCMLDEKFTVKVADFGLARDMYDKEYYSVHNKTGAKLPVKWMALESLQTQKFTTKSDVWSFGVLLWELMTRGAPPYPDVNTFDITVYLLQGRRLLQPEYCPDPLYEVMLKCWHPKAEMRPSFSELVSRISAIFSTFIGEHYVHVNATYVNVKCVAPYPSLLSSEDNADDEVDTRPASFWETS
Mer, sequence (Q12866 21-999): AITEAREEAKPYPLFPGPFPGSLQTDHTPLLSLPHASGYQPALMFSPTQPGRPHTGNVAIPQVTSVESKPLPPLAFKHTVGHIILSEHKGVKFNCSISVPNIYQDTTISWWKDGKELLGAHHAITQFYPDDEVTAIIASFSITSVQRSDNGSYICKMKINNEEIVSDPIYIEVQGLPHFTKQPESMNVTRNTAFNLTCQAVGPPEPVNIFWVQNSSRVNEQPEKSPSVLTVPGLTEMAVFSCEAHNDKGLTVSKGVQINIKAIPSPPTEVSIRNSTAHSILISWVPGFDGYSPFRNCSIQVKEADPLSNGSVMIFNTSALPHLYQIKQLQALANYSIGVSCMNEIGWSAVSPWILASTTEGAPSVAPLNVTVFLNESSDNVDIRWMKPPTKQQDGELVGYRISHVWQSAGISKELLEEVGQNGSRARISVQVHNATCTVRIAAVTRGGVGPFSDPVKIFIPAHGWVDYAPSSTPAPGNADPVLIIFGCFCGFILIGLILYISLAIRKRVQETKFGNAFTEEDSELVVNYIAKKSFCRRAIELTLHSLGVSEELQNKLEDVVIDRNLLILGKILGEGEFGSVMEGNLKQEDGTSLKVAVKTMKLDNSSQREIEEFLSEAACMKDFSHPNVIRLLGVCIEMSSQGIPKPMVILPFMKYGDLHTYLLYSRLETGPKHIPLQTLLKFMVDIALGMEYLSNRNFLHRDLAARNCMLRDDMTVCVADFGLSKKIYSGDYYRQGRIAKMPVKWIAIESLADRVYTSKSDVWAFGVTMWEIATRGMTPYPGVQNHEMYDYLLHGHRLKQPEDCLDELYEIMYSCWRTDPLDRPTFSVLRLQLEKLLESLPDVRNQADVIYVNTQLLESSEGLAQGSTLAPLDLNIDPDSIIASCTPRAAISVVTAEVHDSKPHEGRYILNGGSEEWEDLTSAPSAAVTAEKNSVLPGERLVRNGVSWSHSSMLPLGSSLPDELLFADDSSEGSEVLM
KDR, sequence (P35968 20-1356): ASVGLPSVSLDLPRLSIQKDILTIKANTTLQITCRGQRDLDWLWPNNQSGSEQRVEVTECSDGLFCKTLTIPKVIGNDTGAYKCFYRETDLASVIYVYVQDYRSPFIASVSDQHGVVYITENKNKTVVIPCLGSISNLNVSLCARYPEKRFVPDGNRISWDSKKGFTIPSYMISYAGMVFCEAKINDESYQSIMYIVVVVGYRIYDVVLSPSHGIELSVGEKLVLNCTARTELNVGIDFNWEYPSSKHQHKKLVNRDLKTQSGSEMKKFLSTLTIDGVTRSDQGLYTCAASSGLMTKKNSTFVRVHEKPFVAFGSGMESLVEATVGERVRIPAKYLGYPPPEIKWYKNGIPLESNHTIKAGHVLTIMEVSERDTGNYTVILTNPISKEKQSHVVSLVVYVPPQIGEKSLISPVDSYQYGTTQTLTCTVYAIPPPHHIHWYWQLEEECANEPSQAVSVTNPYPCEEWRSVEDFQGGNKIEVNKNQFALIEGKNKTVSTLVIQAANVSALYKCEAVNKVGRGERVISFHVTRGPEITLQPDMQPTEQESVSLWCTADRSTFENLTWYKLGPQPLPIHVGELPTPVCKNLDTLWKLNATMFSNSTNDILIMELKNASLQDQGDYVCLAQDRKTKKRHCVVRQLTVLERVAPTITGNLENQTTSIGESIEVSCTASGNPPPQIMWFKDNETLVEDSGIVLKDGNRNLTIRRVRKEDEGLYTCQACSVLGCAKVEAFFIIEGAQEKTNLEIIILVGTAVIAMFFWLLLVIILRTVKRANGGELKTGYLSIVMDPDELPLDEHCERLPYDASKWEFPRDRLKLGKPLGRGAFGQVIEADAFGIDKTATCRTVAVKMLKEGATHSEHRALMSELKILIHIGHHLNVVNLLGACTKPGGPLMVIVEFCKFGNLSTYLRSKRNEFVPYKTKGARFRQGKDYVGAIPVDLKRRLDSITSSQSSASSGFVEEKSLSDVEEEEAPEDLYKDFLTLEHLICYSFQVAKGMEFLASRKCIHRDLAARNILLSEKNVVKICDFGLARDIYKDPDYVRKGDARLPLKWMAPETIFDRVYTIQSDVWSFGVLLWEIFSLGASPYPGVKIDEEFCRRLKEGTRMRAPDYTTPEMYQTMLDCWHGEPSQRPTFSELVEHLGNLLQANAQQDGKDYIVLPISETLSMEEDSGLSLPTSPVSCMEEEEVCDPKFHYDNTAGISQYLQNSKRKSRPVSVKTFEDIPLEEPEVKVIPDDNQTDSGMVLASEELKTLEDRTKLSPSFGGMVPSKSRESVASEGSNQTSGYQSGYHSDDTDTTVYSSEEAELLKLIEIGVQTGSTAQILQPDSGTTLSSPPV

In the case of `CNC(=O)c1cc2c(Oc3ccc(NC(=O)C4(C(=O)Nc5ccc(F)cc5)CC4)cc3)ccnc2cc1OCC(C)O` (centres unmarked) [Compound 116, 1-N′-(4-Fluorophenyl)-1-N-[4-[7-(2-hydroxypropoxy)-6-(methylcarbamoyl)quinolin-4-yl]oxyphenyl]cyclopropane-1,1-dicarboxamide], the IC50 at Met was 10 to 100 nM; on KDR, no more than 10 nM; at AXL, no more than 10 nM; at Mer, 10 to 100 nM.

As for `CNC(=O)c1cc2c(Oc3ccc(NC(=O)C4(C(=O)Nc5ccc(F)cc5C)CC4)cc3F)ccnc2cc1OC` [Compound 265, 1-N-[3-Fluoro-4-[7-methoxy-6-(methylcarbamoyl)quinolin-4-yl]oxyphenyl]-1-N′-(4-fluoro-2-methylphenyl)cyclopropane-1,1-dicarboxamide], the IC50 at Met is 10 to 100 nM; against KDR, 10 to 100 nM; at AXL it was no more than 10 nM; against Mer it was 10 to 100 nM.

`COC(=O)Nc1cc2c(Oc3ccc(NC(=O)C4(C(=O)Nc5ccc(F)cc5)CC4)cc3)ccnc2cc1OC` [Compound 280, Methyl N-[4-[4-[[1-[(4-fluorophenyl)carbamoyl]cyclopropane-carbonyl]amino]phenoxy]-7-methoxyquinolin-6-yl]carbamate]: the concentration for half-maximal inhibition (IC50) at Met is 10 to 100 nM; against KDR, no more than 10 nM; against AXL, no more than 10 nM; on Mer it was no more than 10 nM.

Consider `O=C(NOCCO)c1ccc2c(Oc3ccc(NC(=O)C4(C(=O)Nc5ccc(F)cc5)CC4)cc3F)ccnc2c1` [Compound 301, 1-N′-[3-Fluoro-4-[7-(2-hydroxyethoxycarbamoyl)quinolin-4-yl]oxyphenyl]-1-N-(4-fluorophenyl)cyclopropane-1,1-dicarboxamide], for which the IC50 on Met, at KDR, on AXL and against Mer was 10 to 100 nM throughout.

With `COc1cc2nccc(Oc3ccc(NC(=O)C4(C(=O)Nc5ccc(F)cc5)CC4)cc3)c2cc1-c1cnco1` [Compound 192, 1-N′-(4-Fluorophenyl)-1-N-[4-[7-methoxy-6-(1,3-oxazol-5-yl)quinolin-4-yl]oxyphenyl]cyclopropane-1,1-dicarboxamide], the half-inhibitory concentration (IC50) at Met was 10 to 100 nM; against KDR, no more than 10 nM; against AXL, no more than 10 nM; against Mer, no more than 10 nM.

For `CC(O)COc1cc2nccc(Oc3ccc(NC(=O)C4(C(=O)Nc5ccc(F)cc5)CC4)cc3)c2cc1C(N)=O` (centres unmarked) [Compound 115, 1-N-[4-[6-Carbamoyl-7-(2-hydroxypropoxy)quinolin-4-yl]oxyphenyl]-1-N′-(4-fluorophenyl)cyclopropane-1,1-dicarboxamide], the IC50 was 10 to 100 nM at Met, no more than 10 nM against KDR, no more than 10 nM against AXL and 10 to 100 nM at Mer.

Regarding `CNC(=O)c1cc2c(Oc3ccc(NC(=O)C4(C(=O)Nc5ccc(F)cc5C5CC5)CC4)cc3F)ccnc2cc1OC` [Compound 270, 1-N′-(2-Cyclopropyl-4-fluorophenyl)-1-N-[3-fluoro-4-[7-methoxy-6-(methylcarbamoyl)quinolin-4-yl]oxyphenyl]cyclopropane-1,1-dicarboxamide], the half-maximal inhibitory concentration (IC50) on Met, against KDR, on AXL and at Mer was 10 to 100 nM each time.

Consider `COc1cc2nccc(Oc3ccc(NC(=O)C4(C(=O)Nc5ccc(F)cc5)CC4)cc3)c2cc1C(=O)NOCCO` [Compound 27, 1-N′-(4-fluorophenyl)-1-N-[4-[6-(2-hydroxyethoxycarbamoyl)-7-methoxyquinolin-4-yl]oxyphenyl]cyclopropane-1,1-dicarboxamide], for which the concentration for half-maximal inhibition (IC50) on Met is 10 to 100 nM; at KDR, no more than 10 nM; against AXL it was no more than 10 nM; on Mer, 10 to 100 nM.

As to `CCC1NC(=O)c2cc3c(Oc4ccc(NC(=O)C5(C(=O)Nc6ccc(F)cc6)CC5)cc4)ccnc3cc2O1` (centres unmarked) [Compound 96, 1-N-[4-[(2-Ethyl-4-oxo-2,3-dihydropyrido[3,2-g][1,3]benzoxazin-6-yl)oxy]phenyl]-1-N′-(4-fluorophenyl)cyclopropane-1,1-dicarboxamide], the IC50 was in the range of 100 to 300 nM at Met, 100 to 300 nM against KDR, 10 to 100 nM on AXL and 10 to 100 nM against Mer.

`Cc1cc2c(Oc3ccc(NC(=O)C4(C(=O)Nc5ccc(F)cc5)CC4)cc3F)ccnc2cc1C(N)=O` [Compound 293, 1-N′-[4-(7-Carbamoyl-6-methylquinolin-4-yl)oxy-3-fluorophenyl]-1-N-(4-fluorophenyl)cyclopropane-1,1-dicarboxamide]: the half-maximal inhibitory concentration (IC50) at Met, on KDR, on AXL and against Mer was 10 to 100 nM each time.

As to `CNC(=O)c1cc2nccc(Oc3ccc(NC(=O)C4(C(=O)Nc5ccc(F)cc5)CC4)cc3F)c2cc1C` [Compound 289, 1-N′-[3-Fluoro-4-[6-methyl-7-(methylcarbamoyl)quinolin-4-yl]oxyphenyl]-1-N-(4-fluorophenyl)cyclopropane-1,1-dicarboxamide], the half-maximal inhibitory concentration (IC50) on Met, against KDR, at AXL and against Mer was 10 to 100 nM each time.

Turning to `CNC(=O)c1cc2nccc(Oc3cc(F)c(NC(=O)C4(C(=O)Nc5ccc(F)cc5)CC4)cc3F)c2cc1C` [Compound 290, 1-N′-[2,5-Difluoro-4-[6-methyl-7-(methylcarbamoyl)quinolin-4-yl]oxyphenyl]-1-N-(4-fluorophenyl)cyclopropane-1,1-dicarboxamide], the IC50 at Met was no more than 10 nM; against KDR it was 100 to 300 nM; against AXL, no more than 10 nM; at Mer, no more than 10 nM.

Consider `O=C(Nc1ccc(F)cc1)C1(C(=O)Nc2ccc(Oc3ccnc4cc(OCCO)c(-c5ncco5)cc34)cc2)CC1` [Compound 50, 1-N′-(4-Fluorophenyl)-1-N-[4-[7-(2-hydroxyethoxy)-6-(1,3-oxazol-2-yl)quinolin-4-yl]oxyphenyl]cyclopropane-1,1-dicarboxamide], for which the half-maximal inhibitory concentration (IC50) on Met, against KDR, against AXL and against Mer was no more than 10 nM in each case.

Turning to `CC(O)COc1cc2nccc(Oc3ccc(NC(=O)C4(C(=O)Nc5ccc(F)cc5)CC4)cc3)c2cc1-c1ncco1` (centres unmarked) [Compound 125, 1-N′-(4-Fluorophenyl)-1-N-[4-[7-(2-hydroxypropoxy)-6-(1,3-oxazol-2-yl)quinolin-4-yl]oxyphenyl]cyclopropane-1,1-dicarboxamide], the IC50 is 10 to 100 nM at Met, 10 to 100 nM against KDR, no more than 10 nM against AXL and no more than 10 nM at Mer.

In the case of `CNC(=O)c1cc2c(Oc3ccc(NC(=O)C4(C(=O)Nc5ccc(F)cc5OC(C)C)CC4)cc3F)ccnc2cc1OC` [Compound 269, 1-N-[3-Fluoro-4-[7-methoxy-6-(methylcarbamoyl)quinolin-4-yl]oxyphenyl]-1-N′-(4-fluoro-2-propan-2-yloxyphenyl)cyclopropane-1,1-dicarboxamide], the IC50 at Met lay in the range of 100 to 300 nM; on KDR it was 10 to 100 nM; against AXL, 10 to 100 nM; on Mer, 10 to 100 nM.

For `COc1cc2nccc(Oc3ccc(NC(=O)C4(C(=O)Nc5ccc(F)cc5)CC4)cc3)c2cc1C(=O)NN` [Compound 32, 1-N′-(4-fluorophenyl)-1-N-[4-[6-(hydrazinecarbonyl)-7-methoxyquinolin-4-yl]oxyphenyl]cyclopropane-1,1-dicarboxamide], the IC50 is 10 to 100 nM on Met, no more than 10 nM on KDR, no more than 10 nM at AXL and no more than 10 nM on Mer.

As for `CNC(=O)Nc1cc2c(Oc3ccc(NC(=O)C4(C(=O)Nc5ccc(F)cc5)CC4)cc3)ccnc2cc1OC` [Compound 279, 1-N′-(4-Fluorophenyl)-1-N-[4-[7-methoxy-6-(methylcarbamoylamino)-quinolin-4-yl]oxyphenyl]cyclopropane-1,1-dicarboxamide], the IC50 at Met was 10 to 100 nM; against KDR, no more than 10 nM; against AXL it was no more than 10 nM; on Mer, no more than 10 nM.

The values above are taken from patent publication US11542259B2, “Compounds for the treatment of kinase-dependent disorders” (Exelixis, Inc., priority 2018, dated 2023).
